Where a name gives a salt, the structure may show the parent alone. Read-outs that look alike come from different tables or passages of the source.
Legend:
Type in all cases: cell-based
Str. faecalis ATCC 29212 = test: In vitro MIC, Agar Dilution Method; conditions: Str. faecalis ATCC 29212, agar dilution
Description: (§1) In vitro activity of the compounds of the present invention was measured by the Minimum Inhibitory Concentration (MIC) in micrograms/ml utilizing the Agar Dilution Method, which is well known in the art, against a variety of gram-negative and gram-positive organisms.

Ser. marcescens SM = test: In vitro MIC, Agar Dilution Method
Description: as §1

Ps. aeruginosa 5712 = test: In vitro MIC, Agar Dilution Method
Description: as §1

Ps. aeruginosa 18SH = test: In vitro MIC, Agar Dilution Method
Description: as §1

Prot. vulgaris ATCC 6380 = test: In vitro MIC, Agar Dilution Method
Description: as §1

Staph. aureus ATCC 29213 = test: In vitro MIC, Agar Dilution Method
Description: as §1

Staph. aureus 67 = test: In vitro MIC, Agar Dilution Method; conditions: Staph. aureus 67, agar dilution
Description: as §1

Ps. aeruginosa 765 = test: In vitro MIC, Agar Dilution Method
Description: as §1

[1] = test system: Ps. aeruginosa ATCC 27853; test: In vitro MIC, Agar Dilution Method
Description: as §1

Staph. aureus Smith = test: In vitro MIC, Agar Dilution Method
Description: as §1

Str. pyogenes 4 = test: In vitro MIC, Agar Dilution Method; conditions: Str. pyogenes 4, agar dilution
Description: as §1

Cit. freundi BS-16 = test: In vitro MIC, Agar Dilution Method
Description: as §1

Staph. aureus 1059B = test: In vitro MIC, Agar Dilution Method
Description: as §1

Str. pneumoniae 6301 = test: In vitro MIC, Agar Dilution Method; conditions: Str. pneumoniae 6301, agar dilution
Description: as §1

Prot. vulgaris 1028 BC = test: In vitro MIC, Agar Dilution Method
Description: as §1

Prot. mirabilis 90 = test: In vitro MIC, Agar Dilution Method; conditions: Prot. mirabilis 90, agar dilution
Description: as §1

Staph. aureus 753 = test: In vitro MIC, Agar Dilution Method
Description: as §1

Ser. marcescens 1071 = test: In vitro MIC, Agar Dilution Method; conditions: Ser. marcescens 1071, agar dilution
Description: as §1

Ps. aeruginosa 8780 = test: In vitro MIC, Agar Dilution Method
Description: as §1

Enter. cloacae 5699 = test: In vitro MIC, Agar Dilution Method; conditions: Enter. cloacae 5699, agar dilution
Description: as §1

K. pneumoniae A = test: In vitro MIC, Agar Dilution Method; conditions: K. pneumoniae A, agar dilution
Description: as §1

E. coli TEM-1 = test: microbe, parasite or virus in culture; conditions: agar dilution
Description: as §1

E. coli ATCC 25922 = test: microbe, parasite or virus in culture
Description: as §1

E. coli 257 = test: microbe, parasite or virus in culture; conditions: agar dilution
Description: as §1

Enter. cloacae P99 = test: microbe, parasite or virus in culture; conditions: agar dilution
Description: as §1

[2] = Serratia marcescens, read-out: MIC
[3] = Pseudomonas aeruginosa, read-out: MIC
[4] = Staphylococcus aureus, read-out: MIC
[5] = Enterobacter cloacae, read-out: MIC
[6] = Escherichia coli, read-out: MIC

Measured: MIC

N[C@@H](C(=O)N[C@@H]1C(=O)N2C(C(=O)O)=C(CN3CCN(c4cc5c(cc4F)c(=O)c(C(=O)O)cn5C4CC4)CC3)CS[C@H]12)c1ccccc1 [Compound D, [6R-[6α,7β(R)]]-7-[(Aminophenylacetyl)amino]-3-[[4-(3-carboxy-1-cyclopropyl-6-fluoro-1,4-dihydro-4-oxo-7-quinolinyl)-1-piperazinyl]methyl]-8-oxo-5-thia-1-azabicyclo[4.2.0]oct-2-ene-2-carboxylic acid trifluoroacetic acid salt]
250 µg/mL: Prot. mirabilis 90; Proteus mirabilis, read-out: MIC
2000 µg/mL: Staph. aureus 67; [4] | Ps. aeruginosa 765; [3] | Str. pneumoniae 6301; Streptococcus pneumoniae, read-out: MIC | Staph. aureus 753; [4]
62.5 µg/mL: Prot. vulgaris ATCC 6380; Proteus vulgaris, ATCC6380, read-out: MIC | Cit. freundi BS-16; read-out: MIC | Prot. vulgaris 1028 BC; Proteus vulgaris, read-out: MIC
125 µg/mL: Ser. marcescens SM; [2] | Ser. marcescens 1071; [2] | Enter. cloacae 5699; [5]
1000 µg/mL: Ps. aeruginosa 18SH; [3] | Staph. aureus ATCC 29213; Staphylococcus aureus, ATCC29213, read-out: MIC | [1]; Pseudomonas aeruginosa, ATCC27853, read-out: MIC | Str. pyogenes 4; Streptococcus pyogenes, read-out: MIC | Staph. aureus 1059B; [4] | Ps. aeruginosa 8780; [3]
4000 µg/mL: Str. faecalis ATCC 29212; Enterococcus faecalis, ATCC29212, read-out: MIC | Ps. aeruginosa 5712; [3]
31.3 µg/mL: K. pneumoniae A; Klebsiella pneumoniae, read-out: MIC | E. coli TEM-1; [6] | E. coli ATCC 25922; Escherichia coli, ATCC25922, agar dilution, read-out: MIC | E. coli 257; [6] | Enter. cloacae P99; [5]
500 µg/mL: Staph. aureus Smith; [4]

CC(C)(O/N=C(\C(=O)N[C@@H]1C(=O)N2C(C(=O)[O-])=C(CN3CCN(c4cc5c(cc4F)c(=O)c(C(=O)[O-])cn5C4CC4)CC3)CS[C@H]12)c1csc(N)n1)C(=O)NNC(=O)c1ccc(O)c(O)c1.[Na+].[Na+] [Compound G, [6R-[6α,7β(Z)]]-7-[[[(2-Amino-4-thiazolyl)[1-[[(3,4-dihydroxybenzoyl)hydrazino]carbonyl]-1-methylethoxy]imino]acetyl]amino]-3-[[4-(3-carboxy-1-cyclopropyl-6-fluoro-1,4-dihydro-4-oxo-7-quinolinyl)-1-piperazinyl]methyl]-8-oxo-5-thia-1-azabicyclo[4.2.0]oct-2-ene-2-carboxylic acid sodium salt]
500 µg/mL: Ser. marcescens SM | Ps. aeruginosa 18SH | Ps. aeruginosa 765 | [1] | Prot. mirabilis 90 | Ser. marcescens 1071 | K. pneumoniae A
8000 µg/mL: Staph. aureus 67
250 µg/mL: Ps. aeruginosa 5712 | Str. pyogenes 4 | Cit. freundi BS-16 | Prot. vulgaris 1028 BC | Ps. aeruginosa 8780 | Enter. cloacae 5699 | Enter. cloacae P99
2000 µg/mL: Staph. aureus Smith
125 µg/mL: Prot. vulgaris ATCC 6380 | Str. pneumoniae 6301 | E. coli ATCC 25922; agar dilution | E. coli 257
4000 µg/mL: Str. faecalis ATCC 29212 | Staph. aureus ATCC 29213 | Staph. aureus 1059B | Staph. aureus 753
62.5 µg/mL: E. coli TEM-1

CC(C)(O/N=C(\C(=O)N[C@@H]1C(=O)N2C(C(=O)[O-])=C(CN3CCN(c4cc5c(cc4F)c(=O)c(C(=O)O)cn5C4CC4)CC3)CS[C@H]12)c1csc(N)n1)C(=O)O.[Na+] [Compound A, [6R-[6α,7β(Z)]]-7-[[(2-Amino-4-thiazolyl)[(1-carboxy-1-methylethoxy)imino]acetyl]amino]-3-[[4-(3-carboxy-1-cyclopropyl-6-fluoro-1,4-dihydro-4-oxo-7-quinolinyl)-1-piperazinyl]methyl]-8-oxo-5-thia-1-azabicyclo[4.2.0]oct-2-ene-2-carboxylic acid sodium salt]
125 µg/mL: Cit. freundi BS-16
8000 µg/mL: Str. faecalis ATCC 29212 | Staph. aureus ATCC 29213 | Ps. aeruginosa 765 | [1] | Staph. aureus Smith | Staph. aureus 753 | Ps. aeruginosa 8780
4000 µg/mL: Staph. aureus 1059B
1000 µg/mL: Ser. marcescens SM | Prot. vulgaris 1028 BC | Ser. marcescens 1071 | Enter. cloacae 5699
250 µg/mL: Str. pyogenes 4 | Str. pneumoniae 6301 | E. coli ATCC 25922; agar dilution | E. coli 257
16000 µg/mL: Ps. aeruginosa 5712 | Staph. aureus 67
2000 µg/mL: Ps. aeruginosa 18SH | Prot. mirabilis 90
500 µg/mL: Prot. vulgaris ATCC 6380 | K. pneumoniae A | E. coli TEM-1 | Enter. cloacae P99

Nc1nc(/C(=N/OCC(=O)O)C(=O)N[C@@H]2C(=O)N3C(C(=O)[O-])=C(CN4CCN(c5cc6c(cc5F)c(=O)c(C(=O)O)cn6C5CC5)CC4)CS[C@H]23)cs1.[Na+] [Compound B, [6R-[6α,7β(Z)]]-7-[[(2-Amino-4-thiazolyl)[(carboxy-methoxy)imino]acetyl]amino]-3-[[4-(3-carboxy-1-cyclopropyl-6-fluoro-1,4-dihydro-4-oxo-7-quinolinyl)-1-piperazinyl]methyl]-8-oxo-5-thia-1-azabicyclo[4.2.0]oct-2-ene-2-carboxylic acid sodium salt]
125 µg/mL: Str. pyogenes 4
1000 µg/mL: Ser. marcescens SM | Cit. freundi BS-16 | Prot. vulgaris 1028 BC | Enter. cloacae 5699 | K. pneumoniae A
4000 µg/mL: Ps. aeruginosa 18SH
32000 µg/mL: Ps. aeruginosa 5712 | Staph. aureus 67
8000 µg/mL: Staph. aureus ATCC 29213 | Ps. aeruginosa 765 | Staph. aureus Smith | Staph. aureus 753 | Ps. aeruginosa 8780
16000 µg/mL: Str. faecalis ATCC 29212 | [1]
2000 µg/mL: Staph. aureus 1059B | Prot. mirabilis 90 | Ser. marcescens 1071
250 µg/mL: Prot. vulgaris ATCC 6380 | Str. pneumoniae 6301 | E. coli 257 | Enter. cloacae P99
500 µg/mL: E. coli TEM-1 | E. coli ATCC 25922; agar dilution
